Test results reported in paper PMC6199744, “Development of Chemical Proteomics for the Folateome and Analysis of the Kinetoplastid Folateome” (ACS Infectious Diseases, 2018).
Like-named read-outs stand apart in the source and are kept apart here.

Experiments:
Type in all cases: binding
[1] = biological target: T1, HeLa cell extract proteins (Homo sapiens, UniProt Q8NF37)
T1 construct: endogenous in cells; host or cells: HeLa cell extract
T1 sequence (Q8NF37 1-534): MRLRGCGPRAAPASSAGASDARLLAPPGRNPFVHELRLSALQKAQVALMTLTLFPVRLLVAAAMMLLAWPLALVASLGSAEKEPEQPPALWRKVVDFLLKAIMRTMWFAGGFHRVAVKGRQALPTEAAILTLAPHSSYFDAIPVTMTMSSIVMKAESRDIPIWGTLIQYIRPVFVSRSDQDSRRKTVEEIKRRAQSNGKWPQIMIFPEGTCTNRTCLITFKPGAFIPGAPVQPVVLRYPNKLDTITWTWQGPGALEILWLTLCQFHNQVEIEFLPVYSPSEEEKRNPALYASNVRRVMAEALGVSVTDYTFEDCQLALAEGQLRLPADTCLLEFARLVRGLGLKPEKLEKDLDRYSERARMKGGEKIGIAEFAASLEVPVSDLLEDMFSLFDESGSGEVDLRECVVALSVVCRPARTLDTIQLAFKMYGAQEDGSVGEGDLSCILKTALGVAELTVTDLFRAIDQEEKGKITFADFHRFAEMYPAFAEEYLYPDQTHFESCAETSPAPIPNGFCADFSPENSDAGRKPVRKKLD

[2] = biological target: T2, HeLa cell extract proteins (Homo sapiens, UniProt P16615)
T2 construct: endogenous in cells; host or cells: HeLa cell extract
T2 sequence (P16615 whole entry): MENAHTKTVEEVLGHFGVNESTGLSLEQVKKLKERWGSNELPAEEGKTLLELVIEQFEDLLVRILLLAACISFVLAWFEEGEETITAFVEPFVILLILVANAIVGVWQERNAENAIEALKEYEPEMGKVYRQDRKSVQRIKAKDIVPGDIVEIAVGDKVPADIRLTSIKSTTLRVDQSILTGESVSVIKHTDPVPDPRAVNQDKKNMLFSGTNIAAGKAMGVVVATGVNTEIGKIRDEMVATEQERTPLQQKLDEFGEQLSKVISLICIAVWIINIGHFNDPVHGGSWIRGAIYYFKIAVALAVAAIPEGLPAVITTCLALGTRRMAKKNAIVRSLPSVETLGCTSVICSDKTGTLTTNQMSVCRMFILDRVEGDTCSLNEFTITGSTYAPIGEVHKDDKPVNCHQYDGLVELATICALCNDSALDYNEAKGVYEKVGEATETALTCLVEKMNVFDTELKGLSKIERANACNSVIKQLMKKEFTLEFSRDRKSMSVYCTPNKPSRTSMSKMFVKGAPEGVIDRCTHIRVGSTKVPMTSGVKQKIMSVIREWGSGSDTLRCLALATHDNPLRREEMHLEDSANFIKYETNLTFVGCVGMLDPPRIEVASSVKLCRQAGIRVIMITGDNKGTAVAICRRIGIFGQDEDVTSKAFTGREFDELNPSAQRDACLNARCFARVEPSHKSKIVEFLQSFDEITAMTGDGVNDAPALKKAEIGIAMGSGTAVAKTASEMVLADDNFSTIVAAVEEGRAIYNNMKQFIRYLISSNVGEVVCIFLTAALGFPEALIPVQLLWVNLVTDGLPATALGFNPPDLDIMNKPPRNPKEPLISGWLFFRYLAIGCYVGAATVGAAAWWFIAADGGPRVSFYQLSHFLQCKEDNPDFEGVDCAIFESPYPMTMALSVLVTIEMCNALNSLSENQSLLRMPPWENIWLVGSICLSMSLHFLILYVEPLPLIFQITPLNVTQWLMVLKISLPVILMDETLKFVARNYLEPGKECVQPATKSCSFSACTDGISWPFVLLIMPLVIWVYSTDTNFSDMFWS

[3] = biological target: T3, HeLa cell extract proteins (Homo sapiens, UniProt P26038)
T3 construct: endogenous in cells; host or cells: HeLa cell extract
T3 sequence (P26038 whole entry): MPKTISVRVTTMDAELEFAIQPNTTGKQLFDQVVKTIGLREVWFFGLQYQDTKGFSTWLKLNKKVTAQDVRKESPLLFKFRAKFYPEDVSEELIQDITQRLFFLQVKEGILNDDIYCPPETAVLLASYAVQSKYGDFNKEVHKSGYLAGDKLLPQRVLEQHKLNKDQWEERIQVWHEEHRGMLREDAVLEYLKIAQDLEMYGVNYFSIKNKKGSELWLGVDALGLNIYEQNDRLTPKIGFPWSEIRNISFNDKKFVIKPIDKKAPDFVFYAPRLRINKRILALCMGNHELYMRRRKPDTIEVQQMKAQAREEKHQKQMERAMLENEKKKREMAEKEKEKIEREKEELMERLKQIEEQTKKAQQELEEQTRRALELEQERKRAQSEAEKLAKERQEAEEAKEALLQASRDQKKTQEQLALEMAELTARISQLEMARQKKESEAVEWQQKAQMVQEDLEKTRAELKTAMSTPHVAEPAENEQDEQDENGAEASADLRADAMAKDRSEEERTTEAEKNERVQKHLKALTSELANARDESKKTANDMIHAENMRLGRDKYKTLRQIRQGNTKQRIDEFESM

[4] = biological target: T4, HeLa cell extract proteins (Homo sapiens, UniProt P25787)
T4 construct: endogenous in cells; host or cells: HeLa cell extract
T4 sequence (P25787 1-234): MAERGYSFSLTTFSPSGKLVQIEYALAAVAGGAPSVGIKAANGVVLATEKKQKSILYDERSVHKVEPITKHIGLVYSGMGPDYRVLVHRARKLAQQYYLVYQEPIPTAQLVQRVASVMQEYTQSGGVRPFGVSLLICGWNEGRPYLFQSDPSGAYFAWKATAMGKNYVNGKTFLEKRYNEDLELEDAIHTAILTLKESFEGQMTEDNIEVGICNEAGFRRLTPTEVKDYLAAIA

[5] = biological target: T5, HeLa cell extract proteins (Homo sapiens, UniProt Q93074)
T5 construct: endogenous in cells; host or cells: HeLa cell extract
T5 sequence (Q93074 whole entry): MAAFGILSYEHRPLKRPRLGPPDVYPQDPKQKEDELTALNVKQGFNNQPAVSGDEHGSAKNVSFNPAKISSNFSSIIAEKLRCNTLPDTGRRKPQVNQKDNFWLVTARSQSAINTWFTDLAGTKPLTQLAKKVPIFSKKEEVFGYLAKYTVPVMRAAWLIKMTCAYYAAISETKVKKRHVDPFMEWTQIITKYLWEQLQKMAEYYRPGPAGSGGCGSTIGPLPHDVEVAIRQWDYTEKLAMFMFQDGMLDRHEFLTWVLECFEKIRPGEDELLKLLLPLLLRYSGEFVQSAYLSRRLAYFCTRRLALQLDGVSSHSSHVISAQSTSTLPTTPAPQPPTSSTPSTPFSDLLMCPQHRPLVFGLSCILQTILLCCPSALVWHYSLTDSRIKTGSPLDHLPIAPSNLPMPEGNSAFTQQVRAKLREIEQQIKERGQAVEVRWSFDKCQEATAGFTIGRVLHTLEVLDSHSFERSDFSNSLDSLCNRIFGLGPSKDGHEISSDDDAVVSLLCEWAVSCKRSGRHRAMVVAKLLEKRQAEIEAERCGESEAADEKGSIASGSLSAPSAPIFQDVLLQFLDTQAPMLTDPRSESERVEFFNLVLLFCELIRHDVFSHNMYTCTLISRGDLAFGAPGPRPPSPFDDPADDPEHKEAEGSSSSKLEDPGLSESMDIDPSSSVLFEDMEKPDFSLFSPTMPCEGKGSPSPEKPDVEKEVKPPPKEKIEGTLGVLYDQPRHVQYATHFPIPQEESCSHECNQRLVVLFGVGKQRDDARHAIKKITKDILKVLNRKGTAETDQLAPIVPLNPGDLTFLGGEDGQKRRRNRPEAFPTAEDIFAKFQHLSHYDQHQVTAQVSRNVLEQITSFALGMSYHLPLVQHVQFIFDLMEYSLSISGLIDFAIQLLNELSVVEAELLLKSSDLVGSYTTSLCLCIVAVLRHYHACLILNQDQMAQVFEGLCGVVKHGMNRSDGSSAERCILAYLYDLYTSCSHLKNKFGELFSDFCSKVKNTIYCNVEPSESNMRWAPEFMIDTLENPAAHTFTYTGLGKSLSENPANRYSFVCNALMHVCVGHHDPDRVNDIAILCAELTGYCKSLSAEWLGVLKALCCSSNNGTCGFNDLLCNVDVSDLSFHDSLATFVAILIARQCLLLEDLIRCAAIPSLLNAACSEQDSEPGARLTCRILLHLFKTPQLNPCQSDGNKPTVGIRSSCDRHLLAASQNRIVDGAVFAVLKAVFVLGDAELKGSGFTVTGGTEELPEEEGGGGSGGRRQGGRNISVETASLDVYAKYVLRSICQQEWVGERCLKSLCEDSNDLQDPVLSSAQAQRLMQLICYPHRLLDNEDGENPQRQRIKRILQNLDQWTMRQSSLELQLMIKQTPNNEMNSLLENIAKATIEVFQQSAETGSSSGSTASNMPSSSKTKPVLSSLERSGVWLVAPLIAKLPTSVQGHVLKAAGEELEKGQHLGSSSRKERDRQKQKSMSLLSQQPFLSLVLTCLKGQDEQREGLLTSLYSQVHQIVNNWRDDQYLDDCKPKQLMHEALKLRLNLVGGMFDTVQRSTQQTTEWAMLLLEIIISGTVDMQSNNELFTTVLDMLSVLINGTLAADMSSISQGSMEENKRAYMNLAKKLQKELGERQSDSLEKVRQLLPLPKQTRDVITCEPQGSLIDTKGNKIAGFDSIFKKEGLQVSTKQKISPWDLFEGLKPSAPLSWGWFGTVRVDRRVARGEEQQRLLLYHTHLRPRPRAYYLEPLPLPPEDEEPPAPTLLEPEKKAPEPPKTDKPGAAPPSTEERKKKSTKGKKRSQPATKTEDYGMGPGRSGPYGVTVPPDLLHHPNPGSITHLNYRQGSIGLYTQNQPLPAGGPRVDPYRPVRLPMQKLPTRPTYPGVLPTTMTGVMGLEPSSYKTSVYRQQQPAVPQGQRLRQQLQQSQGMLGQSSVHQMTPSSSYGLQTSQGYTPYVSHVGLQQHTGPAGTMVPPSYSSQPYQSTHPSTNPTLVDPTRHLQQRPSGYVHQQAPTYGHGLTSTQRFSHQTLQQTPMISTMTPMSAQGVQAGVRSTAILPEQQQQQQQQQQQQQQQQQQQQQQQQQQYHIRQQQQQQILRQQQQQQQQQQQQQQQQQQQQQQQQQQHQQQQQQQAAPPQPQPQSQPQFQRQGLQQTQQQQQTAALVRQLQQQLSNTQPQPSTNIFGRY

[6] = biological target: T6, HeLa cell extract proteins (Homo sapiens, UniProt Q5T4S7)
T6 construct: endogenous in cells; host or cells: HeLa cell extract

[7] = biological target: T7, HeLa cell extract proteins (Homo sapiens, UniProt Q13011)
T7 construct: endogenous in cells; host or cells: HeLa cell extract
T7 sequence (Q13011 34-328): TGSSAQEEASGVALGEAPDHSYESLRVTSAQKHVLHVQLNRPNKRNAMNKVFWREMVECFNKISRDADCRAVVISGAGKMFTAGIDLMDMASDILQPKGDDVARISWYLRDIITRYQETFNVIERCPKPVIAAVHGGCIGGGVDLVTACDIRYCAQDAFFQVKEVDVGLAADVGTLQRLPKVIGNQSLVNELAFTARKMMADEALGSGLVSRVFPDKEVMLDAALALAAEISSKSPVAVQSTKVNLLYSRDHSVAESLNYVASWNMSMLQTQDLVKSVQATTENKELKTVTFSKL

[8] = biological target: T8, HeLa cell extract proteins (Homo sapiens, UniProt P29401)
T8 construct: endogenous in cells; host or cells: HeLa cell extract
T8 sequence (P29401 1-623): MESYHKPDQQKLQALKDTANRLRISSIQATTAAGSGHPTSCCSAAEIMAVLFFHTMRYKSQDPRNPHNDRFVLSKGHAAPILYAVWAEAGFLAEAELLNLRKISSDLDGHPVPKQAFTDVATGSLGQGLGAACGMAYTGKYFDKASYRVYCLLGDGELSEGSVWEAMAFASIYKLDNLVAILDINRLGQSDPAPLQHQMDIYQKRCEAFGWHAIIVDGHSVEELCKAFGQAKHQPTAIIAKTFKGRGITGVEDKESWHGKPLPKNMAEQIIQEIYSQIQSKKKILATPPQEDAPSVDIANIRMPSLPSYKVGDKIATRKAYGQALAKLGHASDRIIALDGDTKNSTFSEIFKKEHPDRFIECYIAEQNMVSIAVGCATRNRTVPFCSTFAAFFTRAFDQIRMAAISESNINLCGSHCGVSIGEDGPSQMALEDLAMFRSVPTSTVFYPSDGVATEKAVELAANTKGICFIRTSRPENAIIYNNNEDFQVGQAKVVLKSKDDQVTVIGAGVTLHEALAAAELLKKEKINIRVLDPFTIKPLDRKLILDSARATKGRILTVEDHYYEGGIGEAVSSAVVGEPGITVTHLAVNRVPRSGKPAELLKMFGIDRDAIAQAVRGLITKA

[9] = biological target: T9, HeLa cell extract proteins (Homo sapiens, UniProt P28072)
T9 construct: endogenous in cells; host or cells: HeLa cell extract
T9 sequence (P28072 1-239): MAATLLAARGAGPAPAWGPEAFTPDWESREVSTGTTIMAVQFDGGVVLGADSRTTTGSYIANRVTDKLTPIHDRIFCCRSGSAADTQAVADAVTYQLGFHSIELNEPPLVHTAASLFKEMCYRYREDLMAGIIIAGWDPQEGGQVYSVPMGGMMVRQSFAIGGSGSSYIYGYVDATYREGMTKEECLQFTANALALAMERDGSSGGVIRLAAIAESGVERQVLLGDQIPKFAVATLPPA

[10] = biological target: T10, HeLa cell extract proteins (Homo sapiens, UniProt Q9Y679)
T10 construct: endogenous in cells; host or cells: HeLa cell extract
T10 sequence (Q9Y679 1-410): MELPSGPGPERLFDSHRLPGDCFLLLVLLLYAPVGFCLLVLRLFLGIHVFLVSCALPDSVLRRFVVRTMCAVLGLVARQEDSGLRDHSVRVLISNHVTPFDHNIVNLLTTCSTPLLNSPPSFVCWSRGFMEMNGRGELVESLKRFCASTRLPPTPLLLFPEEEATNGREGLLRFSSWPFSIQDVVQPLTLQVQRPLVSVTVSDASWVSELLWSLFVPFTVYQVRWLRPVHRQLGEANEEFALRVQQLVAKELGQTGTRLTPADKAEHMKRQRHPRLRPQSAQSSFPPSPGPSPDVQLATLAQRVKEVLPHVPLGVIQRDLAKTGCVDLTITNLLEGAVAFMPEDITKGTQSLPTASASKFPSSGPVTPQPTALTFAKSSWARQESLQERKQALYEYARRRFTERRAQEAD

Structure (SMILES)	fold changes relative to vehicle control ([1]; HeLa, protein LPCAT1)	fold changes relative to vehicle control ([2]; HeLa, protein ATP2A2)	fold changes relative to vehicle control ([3]; protein MSN, HeLa)	fold changes relative to vehicle control ([4]; protein PSMA2, HeLa)	fold changes relative to vehicle control ([5]; captured protein MED12, HeLa)	fold changes relative to vehicle control ([6]; protein UBR4, HeLa)	fold changes relative to vehicle control ([7]; HeLa, protein ECH1)	fold changes relative to vehicle control ([8]; protein TKT, HeLa)	fold changes relative to vehicle control ([9]; protein PSMB6, HeLa)	fold changes relative to vehicle control ([10]; captured protein AUP1, HeLa)	fold changes relative to vehicle control ([1]; protein LPCAT1, HeLa)	fold changes relative to vehicle control ([3]; HeLa, protein MSN)	fold changes relative to vehicle control ([4]; HeLa, captured protein PSMA2)	fold changes relative to vehicle control ([5]; HeLa, protein MED12)	fold changes relative to vehicle control ([8]; HeLa, protein TKT)	fold changes relative to vehicle control ([9]; HeLa, protein PSMB6)	fold changes relative to vehicle control ([10]; HeLa, protein AUP1)	also measured
CCCCCCOc1cccc(Cc2cnc(N)nc2N)c1 [compound 2]	1.07	1.12	1.81	1.17	0.94	1.19	0.91	2.08	1.36	1.25	–	–	–	–	–	–	–	–
NCCOCCOCC(=O)Nc1nc2ncc(CNc3ccc(C(=O)NC(CCC(=O)O)C(=O)O)cc3)nc2c(=O)[nH]1 (stereo not shown) [compound 6]	–	1.03	–	–	–	0.42	0.96	–	–	–	0.92	1.08	1.05	1.21	1.26	1.29	0.92	–
CCCCCCOc1ccc(Cc2cnc(N)nc2N)cc1 [compound 1]	0.93	1.05	1.07	1.14	1.01	1.14	0.95	1.41	1.31	0.98	–	–	–	–	–	–	–	–
Nc1nc2c(c(=O)[nH]1)N(C=O)C(CNc1ccc(C(=O)N[C@@H](CCC(=O)O)C(=O)O)cc1)CN2 (stereo partly shown) [LEU, leucovorin]	–	1	–	–	–	1.02	1.04	–	–	–	0.85	0.93	0.98	1.14	1.12	1.01	0.83	–
NCCCNc1ccc(C(=O)NC(CCC(=O)O)C(=O)O)cc1 (stereo not shown) [compound 7]	–	0.99	–	–	–	1.02	0.99	–	–	–	1.07	0.81	1.02	1.21	0.99	1.02	0.9	–
Nc1nc2[nH]cc(CCc3ccc(C(=O)N[C@@H](CCC(=O)O)C(=O)O)cc3)c2c(=O)[nH]1 [PTX, pemetrexed]	–	–	–	–	–	–	–	–	–	–	–	–	–	–	–	–	–	fold changes relative to vehicle control [1]: 1; fold changes relative to vehicle control [2]: 1.03; fold changes relative to vehicle control [3]: 0.97; fold changes relative to vehicle control [4]: 1.02; fold changes relative to vehicle control [5]: 1; fold changes relative to vehicle control [6]: 0.94; fold changes relative to vehicle control [7]: 1.01; fold changes relative to vehicle control [8]: 1.2; fold changes relative to vehicle control [9]: 1.1; fold changes relative to vehicle control [10]: 0.89
Nc1nc2cccc(-c3ccccc3)c2n1Cc1ccc(Cl)c(Cl)c1 [compound 3]	1.11	0.98	0.77	0.95	1.14	1.08	1	0.9	1.09	0.9	–	–	–	–	–	–	–	–
